Reference: patent US20010051631A1, “Tricyclic compounds, their production and use” (priority 1994, published 2001)

Key:
[1] = tested on: PDGF-induced contraction; test: Inhibitory effects on the contraction due to PDGF (isolated thoracic aorta strips); design: species or system stroke prone spontaneously hypertensive rats; settings: 1.7 nM PDGF-AB, drug added 30 minutes before
Method: Method: The thoracic aorta of stroke prone spontaneously hypertensive rats at ages ranging from 16 to 36 weeks were isolated, and strip (2 mm in width, 2 cm in length) were prepared from the aorta. Each strip was mounted in 10 ml of an organ bath, which was loaded at 2 g and allowed to stabilized for 2 to 3 hours. As the nutrient, a Krebs-Henseleit solution, bubbled with a mixture gas (95% O2, 5% CO2), was used. At the time when the contraction response against 60 mM KCl becomes constant, each strip was applied by 1.7 nM of PDGF-AB (Cosmobio Inc.) for contraction. Observation was continued until the contraction become maximum and stable (30 to 40 minutes after application of PDGF-AB). Then, the strips were washed, and, in about one hour later (after the tone of the vaso-contraction was recovered to the original level), 10 μl of the drug (DMSO solution) was added. Thirty minutes after drug, 1.7 nM of PDGF-AB was added again and subjected to observation until the contraction became maximum. The PDGF-AB-induced contraction was isometrically recorded on a polygraph (Nihon Denki San-ei). From the contractile response of the strips to PDGF-AB in the absence or presence of drugs, % inhibition of each drug was calculated. IC50 value for the inhibitory effects was calculated in accordance with the Filler's theorem using the least squares method.

[2] = tested on: spontaneously hypertensive rats (SHRs); test: Antihypertensive action in spontaneously hypertensive rats (SHRs); format: in vivo, rat; settings: SHR, oral
Method: Method: Male SHR at ages ranging from 20 to 24 weeks were anesthetized with pentobarbital.sodium (50 mg/kg, i.p.) and, from the femoral artery of each animal, a polyethylene tube was inserted. The polyethylene tube was connected to a pressure transducer and blood pressure after oral administration of drugs was recorded continuously under non-anesthesia. The animals, after the operation, were allowed to freely access to drinking water and eating, until administration of the drugs. The compounds were all orally administered as a suspension in gum arabic (2 ml/kg).

[3] = tested on: hamsters; test: Cholesterol lowering effects in hamsters; format: in vivo, Syrian hamsters
Method: Method: Syrian hamsters of 10 weeks old were stabilized with common feed for two weeks. The animals were grouped based on the total cholesterol in blood. The vehicle (water) or drug was orally administered in a volume of 2 ml/kg for two weeks. During the period of the administration, blood was collected from retinal vessels with passage of time and the total cholesterol and triglyceride in blood were determined. On the other hand, blood was collected from abdominal aorta on the second week after the consecutive administration of the test compounds to determine the total cholesterol, triglyceride and HDL (high density lipid)-cholesterol in blood. Cholesterol C-test, triglyceride G-test and HDL-cholesterol E test (all manufactured by Wako Pure Chemical Industries, Ltd.) were used for the determination of these parameters, respectively.

[4] = tested on: 5/6 nephrectomized rats; test: Antiproteinuric effect in 5/6 nephrectomized rats; format: in vivo, Sprague Dawley rats
Method: Method: Male Sprague Dawley rats of five-week old (Japan Clea) were anesthetized with pentobarbital.sodium (50 mg/kg, i.p.), and the right kidney was excised by dorsal incision, and its two-thirds were cut. Two weeks later, the whole of left kidney was removed. In the Sham group, only the second operation was performed. In two weeks after the second operation, urine was collected for 24 hours under drinking water ad libitum. Urinary albumin and total protein were quantitatively determined by the use of A/G B-test (Wako). On the following day of collecting urine, the blood pressure was measured by the tail cuff method. Test animals showing more proteinuria than that of Sham group were selected. Based on the amount of the proteinuria and the blood pressure level, the animals were grouped so that, the average and distribution of urinary protein and blood pressure same in each group. The drug was suspended in gumarabic/water or dissolved in water, and orally administered once a day for 6-8 weeks in a volume of 2 ml/kg. The administration was consecutively performed, and, at 2, 4, 6 and 8th weeks of treatment, urine was collected and blood pressure was measured. The vehicle group was orally administered with only water at a dose of 2 ml/kg.

[5] = tested on: Hs68 cells; test: PDGF-induced proliferation in Hs68 cells (3H-thymidine uptake); format: cell-based, Human; settings: Hs68, PDGF-BB 5 ng/ml, concentration 1 × 10^−6 M
Method: Method: Human skin fibroblasts (Hs68, Institute for Fermentation, Osaka) were seeded in 48-well plates precoated with collagen type I (Falcon) (25000 cells/well), and cultured for one day. Then, the cells were cultured in Dulbecco's modified Eagle's medium (high glucose) containing 0.1% bovine serum albumin for 48 hours. Fifteen (15) minutes after the addition of the drug, the cells were stimulated with 5 ng/ml of PDGF-BB (Becton Dickinson Labware) containing 3H-thymidine (final concentration 0.4 mCi/ml) (Amersham). After 24 hours, the reaction was stopped with 7.5% trichloroacetic acid at 4° C. and the plate was allowed to stand at 4° C. for 30 minutes. The cells were washed with Ca^2+- and Mg^2-free phosphate-buffered saline (PBS), after then 0.1% sodium dodecyl sulfate (SDS)/0.4N NaOH was added and the plate was allowed to stand at 37° C. for 1 hour to lyze the cells. The whole content of each well was taken in a vial and neutralized with 1N HCl, and then toluene scintillator (Wako Pure Chemical Ind.) was added to each vial. After stirring, the amount of ^3H-thymidine incorporated in the cells was determined with a liquid scintillation counter. The cellular uptake of ^3H-thymidine was used as an indicator of cell proliferation. The effect of the drug on the PDGF-BB (5 ng/ml) uptake of ^3H-thymidine was expressed as % inhibition.

[6] = 3 mg/kg oral once a day, 0 weeks
[7] = 3 mg/kg oral once a day, 2 weeks
[8] = 3 mg/kg oral once a day, 4 weeks
[9] = 3 mg/kg oral once a day, 6 weeks
[10] = 3 mg/kg oral once a day, 8 weeks
[11] = 10 mg/kg oral once a day, 0 weeks
[12] = 10 mg/kg oral once a day, 2 weeks
[13] = 10 mg/kg oral once a day, 4 weeks
[14] = 10 mg/kg oral once a day, 6 weeks
[15] = 10 mg/kg oral once a day, 8 weeks

With Cc1ncc2ccc3n(CCCCCNS(=O)(=O)C(F)(F)F)c(=O)c1n23.Cl [Example 26] the IC50 [1] was 370 nM, the blood-pressure change ([2]; 10 mg/kg, after 7 hrs.) was −22 [after 7 hrs.] mmHg and the “TC (total cholesterol in blood), % of Vehicle” value ([3]; 30 mg/kg oral for two weeks) was 74.5 % of Vehicle. For the same molecule, the “TC-HDL ([total cholesterol value]-[HDL-cholesterol value]), % of Vehicle” value (“TC-HDL … % of Vehicle” for short) ([3]; 30 mg/kg oral for two weeks) was 72.1 % of Vehicle.
With “1,2-Dihydro-3-methyl-1-[4-[(2,2,2-trifluoro)ethanesulfonamido]butan-1-yl]-1,4,7b-triazacyclopent[cd]inden-2-one.hydrochloride [Example 38]” the blood-pressure change ([2]; 30 mg/kg, after 4 hrs.) was −19 [after 4 hrs.] mmHg.
For Cc1nc2cccc3n2c1CN(CCCCNS(=O)(=O)C(F)(F)F)C3.Cl.Cl [Example 3, 4,5-Dihydro-2-methyl-4-[4-(trifluoromethanesulfonamido)butan-1-yl]-3H-1,4,8b-triazaacenaphthylene.dihydrochloride], the IC50 [1] was 290 nM, the “TC (total cholesterol in blood), % of Vehicle” value ([3]; 10 mg/kg oral for two weeks) was 82.2 % of Vehicle and the “TC-HDL … % of Vehicle” value ([3]; 10 mg/kg oral for two weeks) was 79.0 % of Vehicle.
With Cc1ncc2ccc3n(CCCCCNS(=O)(=O)CC(F)(F)F)c(=O)c1n23.Cl [Example 27, 1,2-Dihydro-3-methyl-1-[5-[(2,2,2-trifluoro)-ethanesulfonamido]pentan-1-yl]-1,4,7b-triazacyclopent[cd]inden-2-one.hydrochloride] the blood-pressure change ([2]; 30 mg/kg, after 7 hrs.) was −17 [after 7 hrs.] mmHg.
With Cl.Cl.O=S(=O)(NCCCCN1Cc2cccc3ncc(n23)C1)C(F)(F)F [Example 1, 4,5-Dihydro-4-[4-(trifluoromethanesulfonamido)butan-1-yl]-3H-1,4,8b-triazaacenaphthylene.dihydrochloride] the IC50 [1] was 2130 nM, the Urinary albumin excretion [4, 6] was 11.2 mg/day and the Urinary protein excretion [4, 6] was 114.5 mg/day. For the same molecule, the Urinary albumin excretion [4, 7] was 16.9 mg/day, the Urinary protein excretion [4, 7] was 117.0 mg/day and the Urinary albumin excretion [4, 8] was 18.4 mg/day. It also gave a Urinary protein excretion [4, 8] of 98.2 mg/day, a Urinary albumin excretion [4, 9] of 13.0 mg/day and a Urinary protein excretion [4, 9] of 156.3 mg/day. The Urinary albumin excretion [4, 10] was 25.1 mg/day, the Urinary protein excretion [4, 10] was 102.8 mg/day and the blood-pressure change ([2]; 10 mg/kg, after 5 hrs.) was −21 [after 5 hrs.] mmHg. The “TC (total cholesterol in blood), % of Vehicle” value ([3]; 30 mg/kg oral for two weeks) was 64.1 % of Vehicle and the “TC-HDL … % of Vehicle” value ([3]; 30 mg/kg oral for two weeks) was 68.9 % of Vehicle.
For Cl.O=C1c2cnc3cccc(n23)CN1CCCCNS(=O)(=O)C(F)(F)F [Example 6, 4,5-Dihydro-4-[4-(trifluoromethanesulfonamido)butan-1-yl]-3H-1,4,8b-triazaacenaphthylen-3-one.hydrochloride], the IC50 [1] was 1270 nM, the Urinary albumin excretion [4, 11] was 6.8 mg/day and the Urinary protein excretion [4, 11] was 114.1 mg/day. For the same molecule, the Urinary albumin excretion [4, 12] was 13.5 mg/day, the Urinary protein excretion [4, 12] was 103.0 mg/day and the Urinary albumin excretion [4, 13] was 17.2 mg/day. It also gave a Urinary protein excretion [4, 13] of 93.9 mg/day, a Urinary albumin excretion [4, 14] of 13.1 mg/day and a Urinary protein excretion [4, 14] of 167.2 mg/day. The Urinary albumin excretion [4, 15] was 24.8 mg/day, the Urinary protein excretion [4, 15] was 117.3 mg/day and the blood-pressure change ([2]; 10 mg/kg, after 4 hrs.) was −19 [after 4 hrs.] mmHg. For the same molecule, the “TC (total cholesterol in blood), % of Vehicle” value ([3]; 10 mg/kg oral for two weeks) was 89.5 % of Vehicle and the “TC-HDL … % of Vehicle” value ([3]; 10 mg/kg oral for two weeks) was 84.6 % of Vehicle.
For “1,2-Dihydro-3-methyl-1-[6-(trifluoromethanesulfon-amido)hexan-1-yl)-1,4,7b-triazacyclopent[cd]inden-2-one.hydrochloride [Example 28]”, the blood-pressure change ([2]; 30 mg/kg, after 3 hrs.) was −13 [after 3 hrs.] mmHg, the “TC (total cholesterol in blood), % of Vehicle” value ([3]; 30 mg/kg oral for two weeks) was 65.1 % of Vehicle and the “TC-HDL … % of Vehicle” value ([3]; 30 mg/kg oral for two weeks) was 61.6 % of Vehicle.
With Cl.O=c1c2cccc3ncc(c(=O)n1CCCCNS(=O)(=O)C(F)(F)F)n32 [Example 11, 4,5-Dihydro-4-[4-(trifluoromethanesulfonamido)butan-1-yl]-3H-1,4,8b-triazaacenaphthylene-3,5-dione.hydrochloride] the Urinary albumin excretion [4, 11] was 10.2 mg/day, the Urinary protein excretion [4, 11] was 115.1 mg/day and the Urinary albumin excretion [4, 12] was 19.8 mg/day. For the same molecule, the Urinary protein excretion [4, 12] was 69.1 mg/day, the Urinary albumin excretion [4, 13] was 30.3 mg/day and the Urinary protein excretion [4, 13] was 62.5 mg/day. The Urinary albumin excretion [4, 14] was 26.0 mg/day, the Urinary protein excretion [4, 14] was 170.3 mg/day and the Urinary albumin excretion [4, 15] was 38.3 mg/day. The Urinary protein excretion [4, 15] was 125.4 mg/day and the blood-pressure change ([2]; 30 mg/kg, after 7 hrs.) was −31 [after 7 hrs.] mmHg.
With O=C1c2cnc3cccc(n23)CN1CCC1CCN(S(=O)(=O)C(F)(F)F)CC1 [86 (ii), 4,5-dihydro-4-[2-(1-trifluoromethane-sulfonylpiperidin-4-yl)ethan-1-yl]-3H-1,4,8b-triazaace-naphthylen-3-one] the “% Inhibition of cell proliferation (3H-thymidine uptake)” value [5] was 96.6%.
With “1,2-Dihydro-3-methyl-1-[3,3-dimethyl-5-(trifluoromethanesulfonamido)pentan-1-yl]-1,4,7b-triazacyclopent[cd]inden-2-one.hydrochloride [Example 40]” the blood-pressure change ([2]; 30 mg/kg, after 7 hrs.) was −20 [after 7 hrs.] mmHg.
With CCS(=O)(=O)NCCCCn1c(=O)c2c(C)ncc3ccc1n32.Cl [Example 35, 1,2-Dihydro-3-methyl-1-[4-(ethanesulfonamido)butan-1-yl]-1,4,7b-triazacyclopent[cd]inden-2-one.hydrochloride] the blood-pressure change ([2]; 30 mg/kg, after 2 hrs.) was −14 [after 2 hrs.] mmHg.
Molecule CC(C)(C)OC(=O)NCCCCn1c(=O)c2cccc3ncc(c1=O)n32 [Example 17, 4,5-Dihydro-4-[4-(tert-butoxycarbonylamino)butan-1-yl]-3H-1,4,8b-triazaacenaphthylene-3,5-dione] has a melting point of 118 to 119 °C.
In the case of Cl.O=C1c2cnc3cccc(n23)CN1CCCCCNS(=O)(=O)C(F)(F)F [Example 8, 4,5-Dihydro-4-[5-(trifluoromethanesulfonamido)pentan-1-yl]-3H-1,4,8b-triazaacenaphthylen-3-one.hydrochloride], the IC50 [1] is reported as 310 nM, the “TC (total cholesterol in blood), % of Vehicle” value ([3]; 10 mg/kg oral for two weeks) is reported as 81.5 % of Vehicle and the “TC-HDL … % of Vehicle” value ([3]; 10 mg/kg oral for two weeks) is reported as 77.1 % of Vehicle.
With “1,2-Dihydro-3-methyl-1-[4-(methoxycarbonylamino)butan-1-yl]-1,4,7b-triazacyclopento[cd]inden-2-one.hydrochloride [Example 37]” the blood-pressure change ([2]; 30 mg/kg, after 5 hrs.) was −14 [after 5 hrs.] mmHg.
